Data set [1] can be described thus: Serum drug concentration after subcutaneous implantation of the minipump of Example 6. The note with it: from s.c. minipump of Example 6 in male SD rats. The format is in vivo. An excerpt: The subcutaneous implantation type minipump prepared in Example 6 was subcutaneously implanted in the back of 7-week-old male SD rats. After a predetermined time after the implantation, blood was drawn from the tail vein of the rats, and serum was separated.

The conditions of data set [2]: cited from earlier work.

Consider `CONC(=O)Nc1ccc(-c2sc3c(c2CN(C)Cc2ccccc2)c(=O)n(-c2ccccc2)c(=O)n3Cc2c(F)cccc2F)cc1` [Reference Example 7, 5-(N-Benzyl-N-methylaminomethyl)-1-(2,6-difluorobenzyl)-6-[4-(3-methoxyureido)phenyl]-3-phenylthieno[2,3-d]pyrimidine-2,4(1H,3H)-dione], for which the “Period of sustained release” value in data set [1] stood at 21 days.

One may read the pKa as the pH at which an ionisable group is half protonated. Take `O=C(O)c1cc2ccccc2cc1O` [3-hydroxy-2-naphthoic acid]: the pKa in data set [2] was 2.708.

The values above are taken from US20040116522A1, “Medicinal solutions” (priority 2001, published 2004).
